Test results reported in PubChem BioAssay (NCI).
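These data come from cells grown in 96-well plates and exposed to compound for 48 hours at five concentrations. GI50: concentration for 50% inhibition of growth. The concentration for full growth arrest is given as TGI.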

Tests used:
Assay in all cases: inhibition of tumour cell growth, NCI panel, 48 h
MDA-MB-468 breast = tested on: MDA-MB-468 breast
MDA-MB-231 breast = tested on: MDA-MB-231 breast
NCI-H522 lung = tested on: NCI-H522 lung
UO-31 renal = tested on: UO-31 renal
RPMI-8226 leukemia = tested on: RPMI-8226 leukemia
HOP-62 NSCLC = tested on: HOP-62 NSCLC
HCT-15 colon = tested on: HCT-15 colon
U251 CNS = tested on: U251 CNS
HL-60(TB) leukemia = tested on: HL-60(TB) leukemia
NCI-H226 lung = tested on: NCI-H226 lung
PC-3 prostate = tested on: PC-3 prostate
DU-145 prostate = tested on: DU-145 prostate
KM12 colon = tested on: KM12 colon
HCC-2998 colon = tested on: HCC-2998 colon
HS 578T breast = tested on: HS 578T breast
MCF7 breast = tested on: MCF7 breast
MOLT-4 leukemia = tested on: MOLT-4 leukemia
RXF 393 renal = tested on: RXF 393 renal
NCI/ADR-RES ovarian = tested on: NCI/ADR-RES ovarian
NCI-H460 lung = tested on: NCI-H460 lung
SF-268 CNS = tested on: SF-268 CNS
HT29 colon = tested on: HT29 colon
SK-MEL-28 melanoma = tested on: SK-MEL-28 melanoma
EKVX NSCLC = tested on: EKVX NSCLC
CAKI-1 renal = tested on: CAKI-1 renal
SF-539 CNS = tested on: SF-539 CNS
SF-295 CNS = tested on: SF-295 CNS
SNB-19 CNS = tested on: SNB-19 CNS
SK-MEL-2 melanoma = tested on: SK-MEL-2 melanoma

Compound: O=C(N/N=C/c1occc1Br)c1[nH]c2ccc(Br)cc2c1-c1ccccc1
- GI50 (MDA-MB-468 breast): 383 nM
- TGI (MDA-MB-468 breast): 16900 nM
- GI50 (MDA-MB-231 breast): 1100 nM
- TGI (MDA-MB-231 breast): 14600 nM
- GI50 (NCI-H522 lung): 183 nM
- TGI (NCI-H522 lung): 500 nM
- GI50 (UO-31 renal): 746 nM
- TGI (UO-31 renal): 21100 nM
- GI50 (RPMI-8226 leukemia): 2440 nM
- TGI (RPMI-8226 leukemia): 20500 nM
- GI50 (HOP-62 NSCLC): 668 nM
- TGI (HOP-62 NSCLC): 18100 nM
- GI50 (HCT-15 colon): 516 nM
- TGI (HCT-15 colon): 11700 nM
- GI50 (U251 CNS): 3220 nM
- TGI (U251 CNS): 16800 nM
- GI50 (HL-60(TB) leukemia): 344 nM
- TGI (HL-60(TB) leukemia): 2020 nM
- GI50 (NCI-H226 lung): 2510 nM
- TGI (NCI-H226 lung): 16600 nM
- GI50 (PC-3 prostate): 941 nM
- TGI (PC-3 prostate): 14900 nM
- GI50 (DU-145 prostate): 2710 nM
- TGI (DU-145 prostate): 13100 nM
- GI50 (KM12 colon): 1260 nM
- TGI (KM12 colon): 14100 nM
- GI50 (HCC-2998 colon): 1790 nM
- TGI (HCC-2998 colon): 13700 nM
- GI50 (HS 578T breast): 759 nM
- TGI (HS 578T breast): 18400 nM
- GI50 (MCF7 breast): 323 nM
- TGI (MCF7 breast): 11900 nM
- GI50 (MOLT-4 leukemia): 1450 nM
- TGI (MOLT-4 leukemia): 12800 nM
- GI50 (RXF 393 renal): 2680 nM
- TGI (RXF 393 renal): 22200 nM
- GI50 (NCI/ADR-RES ovarian): 348 nM
- TGI (NCI/ADR-RES ovarian): 3240 nM
- GI50 (NCI-H460 lung): 756 nM
- TGI (NCI-H460 lung): 10900 nM
- GI50 (SF-268 CNS): 1740 nM
- TGI (SF-268 CNS): 16200 nM
- GI50 (HT29 colon): 456 nM
- TGI (HT29 colon): 2680 nM
- GI50 (SK-MEL-28 melanoma): 5050 nM
- TGI (SK-MEL-28 melanoma): 20900 nM
- GI50 (EKVX NSCLC): 1930 nM
- TGI (EKVX NSCLC): 17300 nM
- GI50 (CAKI-1 renal): 698 nM
- TGI (CAKI-1 renal): 17100 nM
- GI50 (SF-539 CNS): 1160 nM
- TGI (SF-539 CNS): 4360 nM
- GI50 (SF-295 CNS): 359 nM
- TGI (SF-295 CNS): 13500 nM
- GI50 (SNB-19 CNS): 2850 nM
- TGI (SNB-19 CNS): 19300 nM
- GI50 (SK-MEL-2 melanoma): 675 nM
- TGI (SK-MEL-2 melanoma): 16900 nM
